Laboratory results taken from article PMC6213006, “Directed Evolution of a Homodimeric Laccase from Cerrena unicolor BBP6 by Random Mutagenesis and In Vivo Assembly” (International Journal of Molecular Sciences, 2018).

How the values were obtained:
Assay in all cases: ABTS oxidation at […] nm, Lineweaver-Burk, crude culture supernatant
Format in all cases: biochemical, Cerrena unicolor
[1] = test system: LacA (parent-type αLacA, recombinant); settings: 100 mM acetate pH 4.0, 30 °C, 10–1000 µM ABTS, air O2
[2] = test system: LacA (parent-type αLacA, recombinant); settings: 100 mM acetate pH 4.0, 30 °C, 10–1000 µM ABTS, air O2; RM464
[3] = test system: LacA (parent-type αLacA, recombinant); settings: 100 mM acetate pH 4.0, 30 °C, 10–1000 µM ABTS, air O2; RM1905
[4] = test system: LacA (parent-type αLacA, recombinant); settings: 100 mM acetate pH 4.0, 30 °C, 10–1000 µM ABTS, air O2; RM1524
[5] = test system: LacA (parent-type αLacA, recombinant); settings: 100 mM acetate pH 4.0, 30 °C, 10–1000 µM ABTS, air O2; IVA205
[6] = test system: LacA (parent-type αLacA, recombinant); settings: 100 mM acetate pH 4.0, 30 °C, 10–1000 µM ABTS, air O2; RM811
[7] = test system: LacA (parent-type αLacA, recombinant); settings: 100 mM acetate pH 4.0, 30 °C, 10–1000 µM ABTS, air O2; RM243
[8] = test system: LacA (parent-type αLacA, recombinant); settings: 100 mM acetate pH 4.0, 30 °C, 10–1000 µM ABTS, air O2; RM1925
[9] = test system: LacA (parent-type αLacA, recombinant); settings: 100 mM acetate pH 4.0, 30 °C, 10–1000 µM ABTS, air O2; IVA264
[10] = test system: LacA (parent-type αLacA, recombinant); settings: 100 mM acetate pH 4.0, 30 °C, 10–1000 µM ABTS, air O2; RM1307, expressed with leader mutations αN23I/αA75T
[11] = test system: LacA (parent-type αLacA, recombinant); settings: 100 mM acetate pH 4.0, 30 °C, 10–1000 µM ABTS, air O2; IVA189

Structure (SMILES): CCn1c(=NN=c2sc3cc(S(=O)(=O)O)ccc3n2CC)sc2cc(S(=O)(=O)O)ccc21 [2,2′-azino-bis(3-ethylbenzothiazoline-6-sulfonic acid)]
- Km [1]: 206 ± 11.6 µM
- Km [2]: 90.2 ± 3.4 µM
- Km [3]: 147 ± 14.6 µM
- Km [4]: 59.8 ± 2.2 µM
- Km [5]: 85.3 ± 0.3 µM
- Km [6]: 168 µM
- Km [7]: 64.8 ± 1.4 µM
- Km [8]: 79.8 ± 12.7 µM
- Km [9]: 64 ± 2.5 µM
- Km [10]: 67.5 ± 1.7 µM
- Km [11]: 69.8 ± 3.6 µM
